Assay results published in patent US9233983B2, “Substituted hetero-bicyclic compounds, compositions and medicinal applications thereof” (ADVINUS THERAPEUTICS LIMITED, priority 2012, dated 2016).
pIC50: −log10 of the molar value.

How the values were obtained:
[1] = biological target: human Bruton's Tyrosine Kinase (Btk) (Homo sapiens (Human), UniProt Q06187); assay: Recombinant Human Bruton's Tyrosine Kinase (Btk) Inhibition Assay (HTRF KinEASE-TK); assay type: biochemical; settings: 20 ng/ml rhBtk, 77 μM ATP (KM), 1 μM TK-Biotin substrate, 90 min; read-out: hBTK IC50
human Bruton's Tyrosine Kinase (Btk), sequence (Q06187 whole entry): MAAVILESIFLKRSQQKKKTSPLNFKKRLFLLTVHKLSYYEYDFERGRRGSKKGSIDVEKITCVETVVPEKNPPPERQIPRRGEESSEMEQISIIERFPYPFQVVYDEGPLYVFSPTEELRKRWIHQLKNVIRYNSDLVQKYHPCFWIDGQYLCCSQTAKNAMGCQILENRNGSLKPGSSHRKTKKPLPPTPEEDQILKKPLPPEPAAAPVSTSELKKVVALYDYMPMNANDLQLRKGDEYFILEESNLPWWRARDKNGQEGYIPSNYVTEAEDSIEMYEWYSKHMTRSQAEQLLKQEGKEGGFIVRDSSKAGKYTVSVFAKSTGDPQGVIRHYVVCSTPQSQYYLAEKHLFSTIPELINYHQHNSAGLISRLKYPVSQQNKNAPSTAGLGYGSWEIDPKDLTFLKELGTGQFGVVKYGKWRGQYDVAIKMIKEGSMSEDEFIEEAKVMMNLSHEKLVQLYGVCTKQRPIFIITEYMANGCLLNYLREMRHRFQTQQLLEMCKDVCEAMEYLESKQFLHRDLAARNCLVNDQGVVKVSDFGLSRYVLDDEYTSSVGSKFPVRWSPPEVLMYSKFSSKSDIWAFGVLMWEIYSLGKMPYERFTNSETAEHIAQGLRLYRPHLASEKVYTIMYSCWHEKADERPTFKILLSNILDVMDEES

mouse splenocytes = assay: Inhibition of B Cell Activation as Measured by CD69 Expression in Mouse Splenocytes; assay type: cell-based; settings: Splenocyte; C57/BL6 splenocytes, 3 ug/mL goat anti-mouse IgM, 18-20 hrs, CD69+ve cells within CD19; read-out: Mouse spleenocyte IC50
Method: Inhibition of B Cell Activation as Measured by CD69 Expression in Mouse Splenocytes:
To test the effect of BTK inhibitors in suppressing B-cell receptor (BCR) mediated activation of B cells, we developed a flow cytometry based assay to analyze CD69 expression in B cell population among total splenocyte from the mouse. […] Finally, cell were cultured in RPMI medium with 10% FBS.
Test compounds were diluted half log starting from 2 mM in 100% DMSO (200×). 1×10^5 splenocytes were incubated with 1 uL of diluted test compounds in 200 uL culture medium in a U-bottom 96 well plate (Greiner) at 37° C. with 5% CO2 for 30 mins. Control wells received 1 uL of 100% DMSO without any compound. The cells were stimulated with 3 ug/mL goat anti-mouse IgM (Sigma, cat#M8644) and incubated for 18-20 hrs. […] Then the cells were washed 3 times with PBS with 1% FBS and analyzed by Guava Easycyte Mini flow cytometer system (Millipore). Flow cytometry data were analyzed using Weasel software (WEHI, Melbourne). First B cells were gated using CD19 markers. Then expression of CD69 was analyzed as percentage of CD69+ve cells within CD19. Percent activity for each data point was calculated using following formula: […]
Percentage activity was fit using sigmoid dose response with variable slope logistic equation in Graph-pad Prism 5 software to determine inhibition constant 50 (IC50).

Row | pIC50 [1] | pIC50 (mouse splenocytes) | Structure (SMILES)
1 | 8.70 | 7.34 | CCN1CCN(Cc2ccc(-c3cc4c(-c5cccc(N6CCOc7cc(C8CC8)cc(F)c7C6=O)c5CO)ccnc4[nH]3)nc2)CC1 [Example I-12, 8-cyclopropyl-4-[3-[2-[5-[(4-ethylpiperazin-1-yl)methyl]-2-pyridyl]-1H-pyrrolo[2,3-b]pyridin-4-yl]-2-(hydroxymethyl)phenyl]-6-fluoro-2,3-dihydro-1,4-benzoxazepin-5-one]
2 | 8.77 | 8.12 | CC1CN(Cc2ccc(-c3cc4c(-c5cccc(N6CCOc7cc(C8CC8)cc(F)c7C6=O)c5CO)ccnc4[nH]3)nc2)CC(C)N1C (stereo not drawn) [Example I-14, 8-cyclopropyl-6-fluoro-4-[2-(hydroxymethyl)-3-[2-[5-[(3,4,5-trimethylpiperazin-1-yl)methyl]-2-pyridyl]-1H-pyrrolo[2,3-b]pyridin-4-yl]phenyl]-2,3-dihydro-1,4-benzoxazepin-5-one]
3 | 8.82 | 7.74 | CN1CCN(Cc2ccc(-c3cc4c(-c5cccc(N6CCOc7cc(C8CC8)cc(F)c7C6=O)c5CO)ccnc4[nH]3)nc2)CC1=O [Example I-15, 8-cyclopropyl-6-fluoro-4-[2-(hydroxymethyl)-3-[2-[5-[(4-methyl-3-oxo-piperazin-1-yl)methyl]-2-pyridyl]-1H-pyrrolo[2,3-b]pyridin-4-yl]phenyl]-2,3-dihydro-1,4-benzoxazepin-5-one]

The remaining lines, values behind:

Row | Structure (SMILES) | pIC50 [1] | pIC50 (mouse splenocytes)
4 | CS(=O)(=O)N1CCN(Cc2ccc(-c3cc4c(-c5cccc(N6CCOc7cc(C8CC8)ccc7C6=O)c5CO)ccnc4[nH]3)nc2)CC1 [Example I-6, 8-cyclopropyl-4-[2-(hydroxymethyl)-3-[2-[5-[(4-methylsulfonylpiperazin-1-yl)methyl]-2-pyridyl]-1H-pyrrolo[2,3-b]pyridin-4-yl]phenyl]-2,3-dihydro-1,4-benzoxazepin-5-one] | 8.52 | 7.44
5 | CC(C)N1CCN(Cc2ccc(-c3cc4c(-c5cccc(N6CCOc7cc(C8CC8)ccc7C6=O)c5CO)ccnc4[nH]3)nc2)CC1 [Example I-7, 8-cyclopropyl-4-[2-(hydroxymethyl)-3-[2-[5-[(4-isopropylpiperazin-1-yl)methyl]-2-pyridyl]-1H-pyrrolo[2,3-b]pyridin-4-yl]phenyl]-2,3-dihydro-1,4-benzoxazepin-5-one] | 8.70 | 7.68
6 | O=C1c2ccc(C3CC3)cc2OCCN1c1cccc(-c2ccnc3[nH]c(-c4ccc(CN5CCS(=O)(=O)CC5)cn4)cc23)c1CO [Example I-8, 8-cyclopropyl-4-[3-[2-[5-[(1,1-dioxo-1,4-thiazinan-4-yl)methyl]-2-pyridyl]-1H-pyrrolo[2,3-b]pyridin-4-yl]-2-(hydroxymethyl)phenyl]-2,3-dihydro-1,4-benzoxazepin-5-one] | 8.05 | 7.07
7 | O=C1c2ccc(C3CC3)cc2OCCN1c1cccc(-c2ccnc3[nH]c(-c4ccc(CN5CCN(CC(F)(F)F)CC5)cn4)cc23)c1CO [Example I-9, 8-cyclopropyl-4-[2-(hydroxymethyl)-3-[2-[5-[[4-(2,2,2-trifluoroethyl)piperazin-1-yl]methyl]-2-pyridyl]-1H-pyrrolo[2,3-b]pyridin-4-yl]phenyl]-2,3-dihydro-1,4-benzoxazepin-5-one] | 8.10 | 7.33
8 | O=C1c2ccc(C3CC3)cc2OCCN1c1cccc(-c2ccnc3[nH]c(-c4ccc(CN5CCN(S(=O)(=O)C6CC6)CC5)cn4)cc23)c1CO [Example I-10, 8-cyclopropyl-4-[3-[2-[5-[(4-cyclopropylsulfonylpiperazin-1-yl)methyl]-2-pyridyl]-1H-pyrrolo[2,3-b]pyridin-4-yl]-2-(hydroxymethyl)phenyl]-2,3-dihydro-1,4-benzoxazepin-5-one] | 8.15 | 7.51
9 | O=C1c2c(F)cc(C3CC3)cc2OCCN1c1cccc(-c2ccnc3[nH]c(-c4ccc(CN5CCN(C6COC6)CC5)cn4)cc23)c1CO [Example I-13, 8-cyclopropyl-6-fluoro-4-[2-(hydroxymethyl)-3-[2-[5-[[4-(oxetan-3-yl)piperazin-1-yl]methyl]-2-pyridyl]-1H-pyrrolo[2,3-b]pyridin-4-yl]phenyl]-2,3-dihydro-1,4-benzoxazepin-5-one] | 8.70 | 8.10
